Test results published in patent US20230227547A1, “ANTIBODY-PAYLOAD CONJUGATES WITH ENHANCED DELIVERY DOMAIN AND USES THEREOF” (IPROGEN BIOTECH INC., priority 2019, published 2023).

Key:
[1] = tested on: CD3-positive Jurkat cells; assay: Delivery assay, Z-RFP FACS, Jurkat cells; assay type: cell-based, human; settings: 1 nM, 10 nM, 100 nM; 30 minutes
Procedure: For FIG. 30 Panel E, Foralumab-LL37 was made from Foralumab (SEQ ID NOs: 129 and 130) in a sortase-catalyzed reaction to GG-LL37 peptide (SEQ ID NO: 2), and purified on Protein A chromatography. For cell delivery assay, Foralumab/Foralumab-LL37 and equimolar number of Z-RFP were added to Jurkat cells at described final concentration (i.e, 1 nM, 10 nM, and 100 nM) and incubated for 30 minutes. The liquid suspension culture was gently spun in a microcentrifuge at 2000 rpm for 4 minutes, and the clear supernatant was removed, and the cell pellet was washed in PBS and resuspended in FACS buffer (1XPBS, 2% FBS, 1 mM EDTA, 0.02% sodium azide) for analysis by FACS (Texas Red channel).

T47D cells = assay: Anti-HER2 mAb delivery efficiency using LL37-derived peptide constructs; assay type: cell-based, human; settings: for Delivery efficiency: peptide conjugated to anti-HER2 mAb light chain, 100 nM Ab, Z-GFP (PEP#6, 35-43) or Goat anti-human IgG-AlexaFluor 488 (PEP#6, 47-94) fluorescence microscopy
Procedure: LL37 and LL37-derived peptides were produced synthetically with two additional N-terminal glycine residues (e.g. as shown in SEQ ID NO:2 compared to SEQ ID NO: 1) to enable the sortase reaction. The LL37-derived peptides (PEP#35 to #43, SEQ ID NOs: 13-21) were all dissolved at 10 mg/ml in phosphate buffer saline (PBS) at room temperature, sterile-filtered, and stored at -20° C. freezer. PEP#48 (SEQ ID: 74), PEP#49 (SEQ ID No: 75), and PEP#60 (SEQ ID NO: 105) were dissolved in 20% (v/v) acetonitrile in PBS. PEP#47 (SEQ ID NO: 96), PEP#86 (SEQ ID NO: 78), PEP#98 (SEQ ID NO: 79), PEP#99 (SEQ ID NO: 80), PEP#102 (SEQ ID NO: 82), and PEP#104 (SEQ ID NO: 84) were dissolved in DMSO. PEP#50 (SEQ ID No: 76), PEP#51 (SEQ ID No: 97), PEP#55 (SEQ ID No: 77), PEP#58 (SEQ ID No: 103), PEP#59 (SEQ ID No: 104), PEP#61 (SEQ ID No: 106), PEP#62 (SEQ ID No: 107), PEP#63 (SEQ ID No: 108), PEP#64 (SEQ ID No: 109), PEP#66 (SEQ ID No: 110), and PEP#94 (SEQ ID No: 35) were all dissolved in PBS. […] The reaction was incubated inside a 37° C. incubator for 16 hours, and then EDTA (pH 7.5) was added to 10 mM in the reaction mixture to chelate calcium and stop the reaction.
Delivery assay: The following delivery assay method was used on the anti-HER2 mAbs conjugated to the PEP#6, #35, #36, #37, #38, #39, #40, #41, #42, and #43 described in Table 7. […] The plates were then removed from the incubator, and the culturing media was removed from the adherent cells. The adherent cells were washed gently with an equal volume of ice-cold PBS. Then, the PBS wash was replaced 250 µl of fresh PBS for fluorescence microscope imaging.
At the end of incubation, the adherent target cells were washed twice with ice-cold PBS, fixed with 2% (w/v) formaldehyde in PBS at room temperature for 15 minutes, and washed twice with PBS at room temperature. The fixed adherent target cells were then permeabilized with 0.05% (v/v) Tween-20 in PBS at room temperature for 15 minutes. The permeabilized cells were then incubated with 5% (v/v) FBS, 0.05% (v/v) Tween-20 in PBS at 37 degree Celsius incubator for 30 minutes. The secondary antibody, Goat anti-human IgG-AlexaFluor 488, was added to 5 ug/ml in 5% (v/v) FBS, 0.05% (v/v) Tween-20 in PBS, and incubated with the treated target cells at 37 degree Celsius incubator for 30 minutes. After incubation, the labelled cells were washed twice with PBS, and stored in storage buffer [5% (v/v) FBS in PBS] at 4 degree Celsius until fluorescence microscope imaging. The delivery of mAb and mAb-LL37-derived peptides were determined qualitatively by estimating the green fluorescence intensity emitted from the AlexFluor488-labelled secondary antibody bound to mAb or mAb-LL37-derived peptides.

Ramos = assay: Delivery assay, Goat anti-human IgG-AlexaFluor 488 fluorescence microscopy, Ramos; assay type: cell-based; design: key to Delivery efficiency of mAb (i.e., mAb): +++: Strong Alexa Fluor 488 (cyan/green) fluorescent intensity; ++: Medium level of Alexa Fluor 488 (cyan/green) fluorescent intensity; +: Weak, but noticeable Alexa Fluor 488 (cyan/green) fluorescent intensity; -: No signal
Procedure: Delivery assay. […] The culturing media containing the unbound antibodies were removed, and the MDA-MB-468 cells were washed with PBS. The adherent cells were treated with trypsin at 37 degree C for 1-2 minutes, neutralized in FACS buffer (2% v/v FBS, 2 mM EDTA, 0.05% w/v sodium azide in PBS), and transferred to FACS tubes on ice. The delivery of antibodies to cells was quantitated by measuring the red fluorescence intensity (i.e., PE-Texas Red color channel in the FACS detector) emitted fromZ-RFP bound to antibody. […] At the end of incubation, the adherent target cells were washed twice with ice-cold PBS, fixed with 2% (w/v) formaldehyde in PBS at room temperature for 15 minutes, and washed twice with PBS at room temperature. […] After incubation, the labelled cells were washed twice with PBS, and stored in storage buffer [5% (v/v) FBS in PBS] at 4 degree Celsius until fluorescence microscope imaging. The delivery of mAb and mAb-LL37 were determined qualitatively by estimating the green fluorescence intensity emitted from the AlexFluor488-labelled secondary antibody bound to mAb or mAb-LL37. […] The secondary anti-human IgG-AlexaFluor488 labelled target cells were washed and resuspended in PBS, and transferred to the clear polystyrene 48-well plates for fluorescence microscope imaging.

LnCap = assay: Delivery assay, Goat anti-human IgG-AlexaFluor 488 fluorescence microscopy, LnCap; assay type: cell-based; design: key to Delivery efficiency of mAb (i.e., mAb): +++: Strong Alexa Fluor 488 (cyan/green) fluorescent intensity; ++: Medium level of Alexa Fluor 488 (cyan/green) fluorescent intensity; +: Weak, but noticeable Alexa Fluor 488 (cyan/green) fluorescent intensity; -: No signal; settings: Target cell LnCap; for Delivery efficiency of mAb (i.e., mAb): 100 nM, 3 hours; for Delivery enhancement: mAb-LL37 vs mAb
Procedure: Delivery assay. […] The culturing media containing the unbound antibodies were removed, and the MDA-MB-468 cells were washed with PBS. The adherent cells were treated with trypsin at 37 degree C for 1-2 minutes, neutralized in FACS buffer (2% v/v FBS, 2 mM EDTA, 0.05% w/v sodium azide in PBS), and transferred to FACS tubes on ice. The delivery of antibodies to cells was quantitated by measuring the red fluorescence intensity (i.e., PE-Texas Red color channel in the FACS detector) emitted fromZ-RFP bound to antibody. […] At the end of incubation, the adherent target cells were washed twice with ice-cold PBS, fixed with 2% (w/v) formaldehyde in PBS at room temperature for 15 minutes, and washed twice with PBS at room temperature. The fixed adherent target cells were then permeabilized with 0.05% (v/v) Tween-20 in PBS at room temperature for 15 minutes. The permeabilized cells were then incubated with 5% (v/v) FBS, 0.05% (v/v) Tween-20 in PBS at 37 degree Celsius incubator for 30 minutes. The secondary antibody, Goat anti-human IgG-AlexaFluor 488, was added to 5 ug/ml in 5% (v/v) FBS, 0.05% (v/v) Tween-20 in PBS, and incubated with the treated target cells at 37 degree Celsius incubator for 30 minutes. After incubation, the labelled cells were washed twice with PBS, and stored in storage buffer [5% (v/v) FBS in PBS] at 4 degree Celsius until fluorescence microscope imaging. The delivery of mAb and mAb-LL37 were determined qualitatively by estimating the green fluorescence intensity emitted from the AlexFluor488-labelled secondary antibody bound to mAb or mAb-LL37. […] However, Ramos [NT] No. ATCC CRL-1596, lot#70016960) was grown in suspension culture (i.e., in contrast to adherent cells), and the modification to the methods involves simply harvesting cells from the shaking culture flask for incubation with antibodies (or LL37-linked antibodies), and frequently pelleting down the target cells in the V-bottom 96-well polypropylene plate for downstream processes of PBS washing, fixing, permeabilizing, blocking, and the secondary antibody labelling. The secondary anti-human IgG-AlexaFluor488 labelled target cells were washed and resuspended in PBS, and transferred to the clear polystyrene 48-well plates for fluorescence microscope imaging.

RT4v6 = assay: Delivery assay, Goat anti-human IgG-AlexaFluor 488 fluorescence microscopy, RT4v6; assay type: cell-based; design: key to Delivery efficiency of mAb (i.e., mAb): +++: Strong Alexa Fluor 488 (cyan/green) fluorescent intensity; ++: Medium level of Alexa Fluor 488 (cyan/green) fluorescent intensity; +: Weak, but noticeable Alexa Fluor 488 (cyan/green) fluorescent intensity; -: No signal; settings: Target cell RT4v6
Procedure: Delivery assay. […] The culturing media containing the unbound antibodies were removed, and the MDA-MB-468 cells were washed with PBS. The adherent cells were treated with trypsin at 37 degree C for 1-2 minutes, neutralized in FACS buffer (2% v/v FBS, 2 mM EDTA, 0.05% w/v sodium azide in PBS), and transferred to FACS tubes on ice. The delivery of antibodies to cells was quantitated by measuring the red fluorescence intensity (i.e., PE-Texas Red color channel in the FACS detector) emitted fromZ-RFP bound to antibody. […] At the end of incubation, the adherent target cells were washed twice with ice-cold PBS, fixed with 2% (w/v) formaldehyde in PBS at room temperature for 15 minutes, and washed twice with PBS at room temperature. The fixed adherent target cells were then permeabilized with 0.05% (v/v) Tween-20 in PBS at room temperature for 15 minutes. The permeabilized cells were then incubated with 5% (v/v) FBS, 0.05% (v/v) Tween-20 in PBS at 37 degree Celsius incubator for 30 minutes. The secondary antibody, Goat anti-human IgG-AlexaFluor 488, was added to 5 ug/ml in 5% (v/v) FBS, 0.05% (v/v) Tween-20 in PBS, and incubated with the treated target cells at 37 degree Celsius incubator for 30 minutes. After incubation, the labelled cells were washed twice with PBS, and stored in storage buffer [5% (v/v) FBS in PBS] at 4 degree Celsius until fluorescence microscope imaging. The delivery of mAb and mAb-LL37 were determined qualitatively by estimating the green fluorescence intensity emitted from the AlexFluor488-labelled secondary antibody bound to mAb or mAb-LL37. […] However, Ramos [NT] […] The secondary anti-human IgG-AlexaFluor488 labelled target cells were washed and resuspended in PBS, and transferred to the clear polystyrene 48-well plates for fluorescence microscope imaging.

Foralumab-LL37
targeted delivery (in words) [1]: more efficient than anti-CD3e mAb (i.e., Foralumab) at targeted delivery

KSKEKIGKEFKRIVQ [PEP#42]
Delivery efficiency (T47D cells): +

KRIVQRIKDFL [PEP#60]
Delivery efficiency (T47D cells): +

Rituximab [Anti-CD20, Rituximab]
Delivery efficiency of mAb (i.e., mAb) (Ramos; Target cell Ramos (suspension culture)): ++
Delivery enhancement (Ramos; Target cell Ramos, mAb-LL37 vs mAb): YES

LLGDFFRKSKEKIGKEFKRIVQRIK [PEP#35]
Delivery efficiency (T47D cells): +

Anti-PSMA, hj591: Anti-PSMA mAb, SEQ ID NOs: 66 and 68
Delivery efficiency of mAb (i.e., mAb) (LnCap): ++
Delivery enhancement (LnCap): YES
Delivery enhancement (LnCap; listed as hj591): greatly enhances the delivery

Labetuzumab [Anti-CEACAM5, Labetuzumab]
Delivery efficiency of mAb (i.e., mAb) (LnCap): +
Delivery enhancement (LnCap): YES
Delivery enhancement (LnCap; listed as labetuzumab): significantly increases the delivery

EKIGKEFKRIVQRIKDFLRN [PEP#63]
Delivery efficiency (T47D cells): +

LLGDFFRQSKEKIGKEFQQIVQQIKDFLQNLVPQTES [PEP#49]
delivery enhancement (in words) (T47D cells; peptide conjugated to anti-HER2 mAb): abolished the antibody delivery enhancement

Vofatamab [Anti-FGFR3, Vofatamab]
Delivery efficiency of mAb (i.e., mAb) (RT4v6; 100 nM, 3 hours): +
Delivery enhancement (RT4v6; mAb-LL37 vs mAb): YES

FRKSKEKIGKFFKRIVQRIFDFLRNLVMMWLL [PEP#48]
Delivery efficiency (T47D cells): +++ (Same as LL37)
